ChEMBL document CHEMBL3217631, “Potent sirtuin inhibition bestowed by l-2-amino-7-carboxamidoheptanoic acid (l-ACAH), a N-acetyl-lysine analog” (Medchemcomm, 2011)
The source made the active and inactive calls. No cut-off for these calls is given here. Square brackets hold non-standard residues; d marks the D form. Peptide text beside a SMILES is read from it. Asu = N[C@@H](CCCCCC(=O)O)C(=O)O

What was measured:
[1] = molecular target: T1, NAD-dependent protein deacetylase sirtuin-1 (Homo sapiens, UniProt Q96EB6); assay: Inhibition of lysine deacetylase activity of human full length GST-tagged SIRT1 expressed in Escherichia coli using H2N-HK-AcK-LM-COOH as substrate incubated with enzyme for 5 mins by reverse-phase HPLC analysis
T1 sequence (Q96EB6 whole entry): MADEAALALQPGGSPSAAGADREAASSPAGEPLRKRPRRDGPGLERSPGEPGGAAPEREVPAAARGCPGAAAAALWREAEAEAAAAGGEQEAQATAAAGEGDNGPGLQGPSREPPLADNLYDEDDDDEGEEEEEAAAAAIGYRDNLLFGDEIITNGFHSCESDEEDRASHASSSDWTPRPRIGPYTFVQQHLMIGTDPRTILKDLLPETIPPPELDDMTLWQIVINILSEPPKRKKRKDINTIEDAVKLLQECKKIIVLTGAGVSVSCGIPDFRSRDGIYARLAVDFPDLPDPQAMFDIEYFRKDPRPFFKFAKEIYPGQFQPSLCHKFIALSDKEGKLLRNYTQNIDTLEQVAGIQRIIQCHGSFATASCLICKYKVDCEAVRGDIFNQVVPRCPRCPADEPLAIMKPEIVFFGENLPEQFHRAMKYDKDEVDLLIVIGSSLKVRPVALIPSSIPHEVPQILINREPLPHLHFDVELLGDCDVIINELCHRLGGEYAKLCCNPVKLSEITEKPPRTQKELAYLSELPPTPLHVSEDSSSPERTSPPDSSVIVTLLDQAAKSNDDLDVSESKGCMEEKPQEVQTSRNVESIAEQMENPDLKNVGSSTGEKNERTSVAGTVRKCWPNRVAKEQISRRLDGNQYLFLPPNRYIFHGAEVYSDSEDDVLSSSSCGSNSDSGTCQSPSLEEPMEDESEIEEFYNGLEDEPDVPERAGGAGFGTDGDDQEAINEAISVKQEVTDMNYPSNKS

[2] = molecular target: T1, NAD-dependent protein deacetylase sirtuin-1; assay: Competitive inhibition of human full length GST-tagged SIRT1 expressed in Escherichia coli using H2N-HK-AcK-LM-COOH as substrate assessed as enzymatic deacetylation product formation incubated with enzyme for 5 mins by double reciprocal plot analysis
[3] = molecular target: T2, NAD-dependent protein deacetylase sirtuin-1 (Homo sapiens) (UniProt Q96EB6); assay: Time-dependent inhibition of human full length GST-tagged SIRT1 expressed in Escherichia coli using H2N-HK-AcK-LM-COOH as substrate assessed as enzymatic deacetylation product formation at 5 to 10 uM by reverse-phase HPLC analysis
T2 sequence (whole entry): T1 sequence (Q96EB6 whole entry)

[4] = molecular target: T2, NAD-dependent protein deacetylase sirtuin-1 (Homo sapiens); assay: Irreversible inhibition of human full length GST-tagged SIRT1 expressed in Escherichia coli using H2N-HK-AcK-LM-COOH as substrate assessed as recovery of enzyme activity at 150 uM preincubated for 30 mins followed by rapid dilution of preformed enzyme-inhibitor complex measured after 2 to 30 mins by reverse-phase HPLC analysis
[5] = molecular target: T2, NAD-dependent protein deacetylase sirtuin-1 (Homo sapiens); assay: Mechanism based inhibition of human full length GST-tagged SIRT1 expressed in Escherichia coli assessed as longer-lived stabilized catalytic intermediate formation at 0.4 mM after 30 mins by MALDI-MS analysis in presence of NAD+
[6] = molecular target: T2, NAD-dependent protein deacetylase sirtuin-1 (Homo sapiens); assay: Mechanism based inhibition of human full length GST-tagged SIRT1 expressed in Escherichia coli assessed as longer-lived stabilized catalytic intermediate 2 formation at 0.4 mM after 30 mins by MALDI-MS analysis in presence of NAD+ and 20% (v/v) methanol
[7] = molecular target: T2, NAD-dependent protein deacetylase sirtuin-1 (Homo sapiens); assay: Mechanism based inhibition of human full length GST-tagged SIRT1 expressed in Escherichia coli assessed as longer-lived stabilized catalytic intermediate 3 formation at 0.4 mM after 30 mins by MALDI-MS analysis in presence of NAD+ and 63% (v/v) H218O
[8] = molecular target: T3, NAD-dependent protein deacetylase (Thermotoga maritima (strain ATCC 43589 / MSB8 / DSM 3109 / JCM 10099)) (UniProt Q9WYW0); assay: Mechanism based inhibition of Thermotoga maritima Sir2Tm assessed as longer-lived stabilized catalytic intermediate formation at 0.4 mM after 30 mins by MALDI-MS analysis in presence of NAD+
T3 sequence (whole entry): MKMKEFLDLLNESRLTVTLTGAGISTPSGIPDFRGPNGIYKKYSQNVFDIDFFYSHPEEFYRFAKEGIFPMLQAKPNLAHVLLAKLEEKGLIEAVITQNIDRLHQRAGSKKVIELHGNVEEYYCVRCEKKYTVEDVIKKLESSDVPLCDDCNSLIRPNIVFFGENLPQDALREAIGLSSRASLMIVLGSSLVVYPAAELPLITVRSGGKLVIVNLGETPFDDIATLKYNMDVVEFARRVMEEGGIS

[9] = molecular target: T2, NAD-dependent protein deacetylase sirtuin-1 (Homo sapiens); assay: Inhibition of lysine deacetylase activity of human full length GST-tagged SIRT1 expressed in Escherichia coli using H2N-HK-AcK-LM-COOH as substrate at 500 uM incubated with enzyme for 5 mins by reverse-phase HPLC analysis
[10] = molecular target: T2, NAD-dependent protein deacetylase sirtuin-1 (Homo sapiens); assay: Inhibition of SIRT1 in human HCT116 cells assessed as enhancement of p53 acetylation at K382 position after 8 hrs by Western blot analysis; assay type: cell-based; conditions: HCT-116
[11] = molecular target: T2, NAD-dependent protein deacetylase sirtuin-1 (Homo sapiens); assay: Inhibition of SIRT1 in human HCT116 cells assessed as enhancement of p53 acetylation at K382 position at 5 uM after 8 hrs by Western blot analysis; assay type: cell-based; conditions: HCT-116
[12] = molecular target: T2, NAD-dependent protein deacetylase sirtuin-1 (Homo sapiens); assay: Inhibition of SIRT1 in human HCT116 cells assessed as enhancement of p53 acetylation at K382 position at 50 uM after 8 hrs by Western blot analysis; assay type: cell-based; conditions: HCT-116
[13] = molecular target: T4, Histone deacetylase 8 (Homo sapiens) (UniProt Q9BY41); assay: Inhibition of human full length HDAC8 using CH3CONH-RH-AcK-(AcK)-CONH2 as substrate assessed as enzymatic deacetylation product formation measured at 500 uM after 1 hr by HPLC analysis
T4 sequence (whole entry): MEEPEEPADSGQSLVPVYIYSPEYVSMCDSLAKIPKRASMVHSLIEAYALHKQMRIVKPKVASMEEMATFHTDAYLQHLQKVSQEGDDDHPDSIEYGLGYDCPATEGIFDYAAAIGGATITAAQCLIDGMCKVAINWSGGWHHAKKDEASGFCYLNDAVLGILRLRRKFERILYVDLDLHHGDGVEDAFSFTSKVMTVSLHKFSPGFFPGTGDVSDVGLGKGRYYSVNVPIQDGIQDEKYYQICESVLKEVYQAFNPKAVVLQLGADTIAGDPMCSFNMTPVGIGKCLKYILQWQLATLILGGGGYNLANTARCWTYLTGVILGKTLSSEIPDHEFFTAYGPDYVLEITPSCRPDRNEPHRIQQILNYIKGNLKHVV

Compound: NC(=O)CCCCC[C@H](NC(=O)OCc1ccccc1)C(=O)Nc1ccccc1
- IC50 [1]: > 1000 µM

Compound: CSCC[C@H](NC(=O)[C@H](CC(C)C)NC(=O)[C@H](CCCCCC(N)=O)NC(=O)[C@H](CCCCN)NC(=O)[C@H](Cc1cnc[nH]1)NC(C)=O)C(N)=O (Ac-HK[Asu](NH2)LM-NH2)
- IC50 [1]: 11.7 µM
- Ki [2]: 2.6 µM
- inhibition [3]: Active
- Activity [4]: inactive
- inhibition [5]: Active
- inhibition [6]: Active
- inhibition [7]: Active
- inhibition [8]: Active

Compound: COC(=O)CCCCC[C@H](NC(=O)[C@H](CCCCN)NC(=O)[C@H](Cc1cnc[nH]1)NC(C)=O)C(=O)N[C@@H](CC(C)C)C(=O)N[C@@H](CCSC)C(N)=O (Ac-HK[Asu](OMe)LM-NH2)
- inhibition [9]: inactive

Compound: CC(=O)NCCCC[C@H](NC(=O)[C@H](CCCCCC(N)=O)NC(=O)[C@H](CCCCNC(C)=O)NC(C)=O)C(N)=O (Ac-Lys(Ac)-[Asu](NH2)-Lys(Ac)-NH2)
- Activity [10]: Dose-dependent effect
- Activity [11]: inactive
- Activity [12]: Active

Compound: CC(=O)NCCCC[C@H](NC(=O)[C@H](Cc1cnc[nH]1)NC(=O)[C@H](CCCNC(=N)N)NC(C)=O)C(=O)N[C@@H](CCCCCC(N)=O)C(N)=O (Ac-RHK(Ac)[Asu](NH2)-NH2)
- inhibition [13]: 12%
